One series is described as follows: Cytotoxicity assay. In kind it is cell-based. Conditions: human, HCT 116 cells.
For series [1], the system named is Ub^G76V-GFP Hela cells (proteasome activity). As to the kind of experiment: Ub^G76V-GFP degradation assay. In kind it is cell-based. Conditions: Homo sapiens, read-out: Ub^G76VGFP Hela Cell IC50.
The next series concerns the target Rpn11 (Homo sapiens, UniProt O00487). As to the kind of experiment: Rpn11 fluorescence polarization deubiquitination assay. Format: biochemical. A general note: In fluorescence polarisation assays a small probe gives low polarisation when free and higher when bound to something large.
In the next series the target is Csn5 (Homo sapiens, UniProt Q92905). The experiment in a line: CSN5 activity assay. In kind it is biochemical.
The next series concerns the target T1, AMSH (Homo sapiens, UniProt O95630).
T1 sequence (O95630 1-424): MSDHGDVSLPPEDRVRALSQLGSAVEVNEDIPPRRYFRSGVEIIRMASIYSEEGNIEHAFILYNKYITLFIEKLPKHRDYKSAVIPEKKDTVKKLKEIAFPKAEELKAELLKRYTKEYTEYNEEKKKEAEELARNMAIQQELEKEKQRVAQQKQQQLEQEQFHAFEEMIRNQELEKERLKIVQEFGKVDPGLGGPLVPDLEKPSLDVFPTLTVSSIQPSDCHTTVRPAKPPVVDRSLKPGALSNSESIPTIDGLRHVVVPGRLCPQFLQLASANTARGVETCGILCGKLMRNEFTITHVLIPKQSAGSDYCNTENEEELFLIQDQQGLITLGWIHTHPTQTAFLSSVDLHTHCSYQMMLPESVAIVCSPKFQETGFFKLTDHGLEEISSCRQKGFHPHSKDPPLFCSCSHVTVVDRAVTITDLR
As to the kind of experiment: AMSH activity assay. In kind it is biochemical.

The target in the next series is BRISC complex (Homo sapiens, UniProt P46736). The experiment in a line: BRISC activity assay. Conditions: Figure S1. Format: biochemical.
[2] abbreviates: HCT 116 Cytotoxicity IC50, Table 2.

The term IC50 denotes the concentration that inhibits the measured activity by half.

The structures appear in SMILES notation. Bounds are passed on as bounds.

With `CSc1cccc2cccnc12` [Compound 6, 8-(Methylthio)quinoline], in the series “Cytotoxicity assay” (HCT 116 Cytotoxicity, Table 1), the concentration for half-maximal inhibition (IC50) at 72 h is over 100 µM. `Cc1ccc2cccc(S)c2n1` [Compound 9c, 2-Methylquinoline-8-thiol]: the IC50 at 72 h in the series “Cytotoxicity assay” (setting [2]) was over 50 µM. In turn, `Sc1cccc2ncccc12` [Compound 7c, Quinoline-5-thiol] showed a half-inhibitory concentration (IC50) at 72 h in the series “Cytotoxicity assay” (HCT 116 Cytotoxicity, Table 1) of over 100 µM. Take `CSc1cccc2cc(C(=O)NCCc3nccs3)cnc12` [Compound 48, 8-(Methylthio)-N-(2-(thiazol-2-yl)ethyl)quinoline-3-carboxamide]: the half-inhibitory concentration (IC50) in series [1] is over 100 µM. On to `Sc1cccc2ccccc12` [Compound 2], for which, in “Cytotoxicity assay” (HCT 116 Cytotoxicity, Table 1), the IC50 at 72 h was over 100 µM. For `O=C(NCCc1nccs1)c1cnc2c(O)cccc2c1` [Compound 47, 8-Hydroxy-N-(2-(thiazol-2-yl)ethyl)quinoline-3-carboxamide], the 50% inhibitory concentration (IC50) in series [1] was over 100 µM.

On to `O=C(NCCc1nccs1)c1cnc2c(S)ccnc2c1` [Compound 50f, 8-Mercapto-N-(2-(thiazol-2-yl)ethyl)-1,5-naphthyridine-3-carboxamide], for which the IC50 against Rpn11 (Rpn11 IC50) is about 82 µM; on Rpn11 (Rpn11 IC50, Table 5, control compounds), 82 ± 14 µM; against Csn5, over 100 µM; against AMSH it was over 100 µM; in series [1] it was over 100 µM. For the compound `Sc1ccnc2cccnc12` [Compound 8e, 1,5-Naphthyridine-4-thiol], the “fold weaker Rpn11 activity compared to 8TQ” value at Rpn11 was ~ 6 fold.

Regarding `Cc1cccc2cccnc12` [Compound 3], the concentration for half-maximal inhibition (IC50) at 72 h in the series “Cytotoxicity assay” (HCT 116 Cytotoxicity, Table 1) is over 100 µM. `Sc1cccc2cccnc12` [8TQ, 8-thioquinoline]: the “inhibition of Rpn11 in MBP library screen” value at Rpn11 (fragment concentration of 200 μM) is recorded as “essentially complete inhibition”. Besides, the ligand efficiency at Rpn11 (from Rpn11 IC50) is reported as 0.69. Besides, half-maximal inhibition in “Cytotoxicity assay” (HCT 116 Cytotoxicity, Table 1) (IC50 at 72 h) was put at 1.3 µM. Further, the “inhibition of BRISC” value against BRISC complex was “significant inhibition”. Turning to `Cc1ccnc2c(S)cccc12` [Compound 11c, 4-Methylquinoline-8-thiol], the half-maximal inhibitory concentration (IC50) at 72 h in “Cytotoxicity assay” (setting [2]) was over 10 µM.

These data come from PMC5761724 (Journal of medicinal chemistry, 2017).
